Assay results taken from patent publication US8586318B2, “Restricted access media and methods for making restricted access media” (Board of Regents of the University of Nebraska, priority 2008, dated 2013).

Legend:
[1] = system: anti-fluorescein antibodies; assay: Static binding of fluorescein or fluorescein-BSA to anti-fluorescein RAM support; design: species or system mouse; settings: 100 Å silica
Procedure: The binding properties of the anti-fluorescein IA-RAM support were initially determined before and after digestion by reacting this support with a known excess of fluorescein (sodium salt, MW=376 Da) or fluorescein-BSA conjugate (average MW=69.5 kDa). Studies were performed using anti-fluorescein antibodies covalently linked to Nucleosil Si-100 using the hydrazide-activation method. A 2 mg portion of the desired anti-fluorescein support was incubated with shaking in 1 mL of a 0.040 μg/mL fluorescein solution or 1 mL of 20 μg/mL fluorescein-BSA solution in 0.1 M potassium phosphate buffer (pH 7.4) at 4° C. for 30 minutes. The mixtures were centrifuged and the supernatant was analyzed for fluorescein or fluorescein-BSA content based on the fluorescence of the solutions. Standard solutions that contained 0.002-2.0 μg/mL fluorescein or 1-30 μg/mL of the fluorescein-BSA conjugate in 0.10 M potassium phosphate buffer (pH 7.4) were also analyzed. The amount of fluorescein or fluorescein-BSA bound to the anti-fluorescein IA-RAM supports was determined by comparing the final and initial concentrations of fluorescein or fluorescein-BSA that remained in solution. […] The fluorescein or fluorescein-BSA that was bound by anti-fluorescein antibodies was determined by determining the amount of the analytes that remained in solution after the incubation step.

[2] = system: anti-fluorescein antibodies; assay: Ultrafast extraction on anti-fluorescein RAM column, flow-based; type: binding, mouse
Procedure: For chromatographic studies, 200 μL injections of samples containing 0.5 nM fluorescein or 3 nM of fluorescein-BSA were made at flow rates ranging from 0.1-1.0 mL/min. The injections were performed at room temperature using 0.067 M potassium phosphate buffer (pH 7.4) as the application buffer. Two or three replicate injections were made at each flow rate onto columns containing the anti-fluorescein IA-RAM support or the corresponding control support. […] The fraction of extracted fluorescein was calculated by comparing the areas of the non-retained peaks to those obtained using a control column. […] The retained species were eluted between studies by washing the column with a 0.067 M potassium phosphate buffer (pH 2.5) for 20 minutes. Elution was followed by a column regeneration step by applying 0.067 M phosphate application buffer (pH 7.4) for 10 minutes before each new sample injection. The RAM, specifically an IA-RAM made using anti-fluorescein antibody, was tested for use in a flow-based system for the selective, ultrafast extraction of fluorescein versus a fluorescein-BSA conjugate. This was accomplished by comparing the results obtained with a RAM column to results for a control column containing only diol silica.

“fluorescein-BSA conjugate: fluorescein conjugate of bovine serum albumin, prepared using fluorescein isothiocyanate, 12 mol fluorescein/mol protein” was tested. Which “original binding capacity of the covalently linked antibodies” value ([1]; before papain treatment, hydrazide method, 30 minutes incubation) did it give?
The value was 0.69 (±0.01) mg/g silica.

What about the “decrease of binding capacity after treatment with papain” value ([1]; papain 90 minutes at 37° C., 1:100 (w/w)) of the same substance?
Its value is 92%.

What about the “retention on anti-fluorescein RAM column (in words)” value ([2]; injected at 0.1 mL/min) of the same substance?
The value was “no significant degree of binding”.

What about the “extracted by anti-fluorescein RAM support” value ([2]; same conditions as used for fluorescein) of the same substance?
Its value is “less than 1%”.
